From the supplement of paper PMC10307832

Columns and labels:
Test in all cases: relative viability (nuclei count vs DMSO), 5 days (fraction); higher = more cells survive
Carboplatin + Trametinib = compound: C1CC(C1)(C(=O)O)C(=O)O.[NH2-].[NH2-].[Pt+2] [Carboplatin] + CC(=O)Nc1cccc(-n2c(=O)n(C3CC3)c(=O)c3c(Nc4ccc(I)cc4F)n(C)c(=O)c(C)c32)c1 [Trametinib] (partner 0.02 µM)
In short: (§1)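 Medians of duplicate plates are given as relative viability. That measure is the nuclei count in treated wells divided by the count in vehicle wells. Counts were taken on 4× images of lung cancer cell lines in 1536-well plates, 5 days after pin-tool dosing the day after seeding with one drug alone or a fixed anchor-drug dose plus five library-drug doses (not always all listed) in √10 steps.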

MLN4924 + Olaparib = compound: NS(=O)(=O)OC[C@@H]1C[C@@H](n2ccc3c(N[C@H]4CCc5ccccc54)ncnc32)C[C@@H]1O [MLN4924] + O=C(c1cc(Cc2n[nH]c(=O)c3ccccc23)ccc1F)N1CCN(C(=O)C2CC2)CC1 [Olaparib] (partner 8 µM)
In short: as §1

MLN4924 + AZD7762 = compound: NS(=O)(=O)OC[C@@H]1C[C@@H](n2ccc3c(N[C@H]4CCc5ccccc54)ncnc32)C[C@@H]1O [MLN4924] + NC(=O)Nc1cc(-c2cccc(F)c2)sc1C(=O)N[C@H]1CCCNC1 [AZD7762] (partner 0.2 µM)
In short: as §1

GSK126 + Trametinib = compound: CC[C@H](C)N1C=C(C2=C(C=C(C=C21)C3=CN=C(C=C3)N4CCNCC4)C(=O)NCC5=C(C=C(NC5=O)C)C)C [GSK126] + CC(=O)Nc1cccc(-n2c(=O)n(C3CC3)c(=O)c3c(Nc4ccc(I)cc4F)n(C)c(=O)c(C)c32)c1 [Trametinib] (partner 0.02 µM)
In short: as §1

Cell Line | relative viability (Carboplatin + Trametinib; first compound 0.08 µM) | relative viability (Carboplatin + Trametinib; first compound 0.253 µM) | relative viability (Carboplatin + Trametinib; first compound 0.8 µM) | relative viability (Carboplatin + Trametinib; first compound 2.53 µM) | relative viability (Carboplatin + Trametinib; first compound 8 µM) | relative viability (MLN4924 + Olaparib; first compound 0.04 µM) | relative viability (MLN4924 + Olaparib; first compound 0.1265 µM) | relative viability (MLN4924 + Olaparib; first compound 0.4 µM) | relative viability (MLN4924 + Olaparib; first compound 1.265 µM) | relative viability (MLN4924 + Olaparib; first compound 4 µM) | relative viability (MLN4924 + AZD7762; first compound 0.04 µM) | relative viability (MLN4924 + AZD7762; first compound 0.1265 µM) | relative viability (MLN4924 + AZD7762; first compound 0.4 µM) | relative viability (MLN4924 + AZD7762; first compound 1.265 µM) | relative viability (MLN4924 + AZD7762; first compound 4 µM) | relative viability (GSK126 + Trametinib; first compound 0.08 µM) | relative viability (GSK126 + Trametinib; first compound 0.253 µM) | relative viability (GSK126 + Trametinib; first compound 0.8 µM) | relative viability (GSK126 + Trametinib; first compound 2.53 µM) | relative viability (GSK126 + Trametinib; first compound 8 µM)
NCI-H1437 | 0.487 | 0.518 | 0.452 | 0.463 | 0.5 | 0.582 | 0.499 | 0.409 | 0.253 | 0.153 | 0.999 | 0.852 | 0.855 | 0.589 | 0.285 | 0.507 | 0.528 | 0.494 | 0.459 | 0.501
NCI-H1648 | 0.527 | 0.567 | 0.45 | 0.382 | 0.473 | 0.535 | 0.398 | 0.382 | 0.253 | 0.274 | 0.777 | 0.727 | 0.526 | 0.33 | 0.223 | 0.544 | 0.959 | 0.409 | 0.522 | 0.445
NCI-H1651 | 0.851 | 0.77 | 0.826 | 0.771 | 0.711 | 0.176 | 0.182 | 0.176 | 0.138 | 0.0847 | 0.495 | 0.53 | 0.47 | 0.436 | 0.158 | 0.794 | 0.86 | 0.811 | 0.844 | 0.866
NCI-H1666 | 0.914 | 0.848 | 0.85 | 0.813 | 0.787 | 0.774 | 0.691 | 0.657 | 0.468 | 0.388 | 0.726 | 0.755 | 0.614 | 0.356 | 0.362 | 0.859 | 0.998 | 0.841 | 0.818 | 0.838
NCI-H1734 | 0.69 | 0.718 | 0.659 | 0.637 | 0.501 | 0.652 | 0.547 | 0.128 | 0.108 | 0.107 | 0.863 | 0.641 | 0.204 | 0.104 | 0.111 | 0.801 | 0.63 | 0.662 | 0.731 | 0.766
NCI-H1755 | 0.823 | 0.78 | 0.752 | 0.82 | 0.7 | 0.859 | 0.544 | 0.491 | 0.254 | 0.171 | 0.604 | 0.682 | 0.666 | 0.411 | 0.255 | 0.771 | 0.736 | 0.777 | 0.826 | 0.793
NCI-H1792 | 0.514 | 0.395 | 0.354 | 0.361 | 0.231 | 0.452 | 0.37 | 0.384 | 0.33 | 0.104 | 0.914 | 0.866 | 1.21 | 0.413 | 0.242 | 0.492 | 0.397 | 0.43 | 0.405 | 0.406
NCI-H1793 | 0.39 | 0.455 | 0.48 | 0.386 | 0.431 | 0.833 | 0.964 | 0.991 | 0.297 | 0.194 | 0.714 | 0.463 | 0.51 | 0.406 | 0.216 | 0.432 | 0.423 | 0.457 | 0.384 | 0.338
NCI-H1915 | 0.325 | 0.29 | 0.296 | 0.288 | 0.257 | 0.314 | 0.22 | 0.221 | 0.142 | 0.129 | 0.844 | 0.786 | 0.713 | 0.265 | 0.162 | 0.344 | 0.29 | 0.313 | 0.315 | 0.332
NCI-H1944 | 0.439 | 0.419 | 0.439 | 0.362 | 0.338 | 0.405 | 0.296 | 0.304 | 0.162 | 0.139 | 0.766 | 0.627 | 0.39 | 0.186 | 0.123 | 0.415 | 0.373 | 0.435 | 0.443 | 0.413
NCI-H1975 | 0.329 | 0.391 | 0.33 | 0.371 | 0.388 | 0.706 | 0.948 | 0.829 | 0.498 | 0.213 | 0.636 | 0.973 | 1.54 | 1.79 | 0.756 | 0.377 | 0.31 | 0.362 | 0.369 | 0.352
NCI-H1993 | 0.564 | 0.51 | 0.561 | 0.404 | 0.497 | 0.776 | 0.481 | 0.652 | 0.422 | 0.426 | 0.756 | 0.572 | 0.424 | 0.369 | 0.405 | 0.517 | 0.525 | 0.448 | 0.54 | 0.467
NCI-H2085 | 0.498 | 0.558 | 0.512 | 0.518 | 0.527 | 0.837 | 0.747 | 0.868 | 0.485 | 0.363 | 0.989 | 0.972 | 1.07 | 0.941 | 0.603 | 0.614 | 0.658 | 0.554 | 0.569 | 0.568
NCI-H2087 | 0.242 | 0.257 | 0.171 | 0.198 | 0.175 | 0.552 | 0.54 | 0.281 | 0.159 | 0.0852 | 1.3 | 1.17 | 0.604 | 0.165 | 0.128 | 0.223 | 0.211 | 0.246 | 0.2 | 0.2
NCI-H2126 | 0.586 | 0.613 | 0.562 | 0.614 | 0.536 | 0.862 | 0.668 | 0.618 | 0.258 | 0.246 | 1.02 | 1.02 | 0.767 | 0.49 | 0.369 | 0.552 | 0.576 | 0.536 | 0.494 | 0.564
NCI-H2170 | 0.911 | 1.02 | 0.966 | 0.814 | 0.717 | 0.413 | 0.229 | 0.195 | 0.148 | 0.113 | 0.9 | 0.536 | 0.544 | 0.147 | 0.112 | 1.05 | 0.964 | 0.893 | 0.891 | 1.03
